Patent US9266883B2, “Ring-fused bicyclic pyridyl derivatives as FGFR4 inhibitors” (Novartis AG, priority 2013, dated 2016)
Structures can show the parent of a compound that is named as a salt. Where two headings read alike, the source gives them in different places.

Assays:
Tel-FGFR4 = Tel-FGFR4 (Homo sapiens (Human), UniProt P22455); assay: In vitro cellular kinase assay for FGFR4 (BaF3-Tel-FGFR4 cells, MSD capture ELISA of tyrosine phosphorylation); format: cell-based
[1] = biological target: FGFR4 (GST-FGFR4(388-802)) (Homo sapiens (Human), UniProt P22455); assay: In-vitro biochemical kinase assay for FGFR4 (Caliper microfluidic mobility shift)
Chain of FGFR4 (GST-FGFR4(388-802)) (P22455 388-802): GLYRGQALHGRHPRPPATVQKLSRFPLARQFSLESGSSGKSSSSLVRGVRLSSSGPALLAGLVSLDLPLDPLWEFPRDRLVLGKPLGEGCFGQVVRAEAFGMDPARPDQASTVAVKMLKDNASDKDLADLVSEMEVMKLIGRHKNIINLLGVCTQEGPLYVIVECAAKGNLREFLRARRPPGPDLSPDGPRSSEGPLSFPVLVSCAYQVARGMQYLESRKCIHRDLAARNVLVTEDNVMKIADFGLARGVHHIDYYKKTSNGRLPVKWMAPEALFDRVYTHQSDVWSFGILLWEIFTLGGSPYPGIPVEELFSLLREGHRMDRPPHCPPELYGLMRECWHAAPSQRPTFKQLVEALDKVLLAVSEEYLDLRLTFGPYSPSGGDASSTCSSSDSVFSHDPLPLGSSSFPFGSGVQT

[2] = Cellular BaF3 FGFR4 assay, read-out: Cellular IC50
[3] = biochemical FGFR4 assay, read-out: Biochemical IC50
[4] = BaF3-Tel-FGFR4 cells, 1 hour incubation, read-out: Cellular BaF3 FGFR4 IC50
[5] = read-out: Biochemical FGFR4 IC50

Chain of Tel-FGFR4 (P22455 other isoform, or with tags, fused parts or gaps): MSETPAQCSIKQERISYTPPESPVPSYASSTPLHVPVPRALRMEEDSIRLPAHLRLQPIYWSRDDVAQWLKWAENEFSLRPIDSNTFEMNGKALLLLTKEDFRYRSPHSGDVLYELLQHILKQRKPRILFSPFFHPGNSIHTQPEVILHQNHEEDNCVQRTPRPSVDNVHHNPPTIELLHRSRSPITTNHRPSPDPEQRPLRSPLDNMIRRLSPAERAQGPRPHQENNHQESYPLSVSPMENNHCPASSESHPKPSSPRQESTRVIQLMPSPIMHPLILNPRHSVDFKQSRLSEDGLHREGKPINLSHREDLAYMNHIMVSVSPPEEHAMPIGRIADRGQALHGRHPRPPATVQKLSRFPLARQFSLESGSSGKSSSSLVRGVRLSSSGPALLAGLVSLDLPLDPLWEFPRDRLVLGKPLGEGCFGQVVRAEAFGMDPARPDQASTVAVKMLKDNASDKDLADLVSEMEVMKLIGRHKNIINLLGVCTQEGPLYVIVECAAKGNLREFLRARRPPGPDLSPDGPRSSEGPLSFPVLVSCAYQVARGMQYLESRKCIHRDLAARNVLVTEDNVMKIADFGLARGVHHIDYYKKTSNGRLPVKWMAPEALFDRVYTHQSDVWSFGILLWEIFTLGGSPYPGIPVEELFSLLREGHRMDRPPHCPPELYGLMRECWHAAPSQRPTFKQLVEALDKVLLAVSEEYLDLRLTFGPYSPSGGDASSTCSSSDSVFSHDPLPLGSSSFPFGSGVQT

IC50 (Tel-FGFR4; [2]) [nM]	IC50 [1, 3] [nM]	Structure (SMILES)	IC50 (Tel-FGFR4; [4]) [nM]	IC50 [1, 5] [nM]	IC50 (Tel-FGFR4; measured and considered as outlier values, not included in the table or list, read-out: IC50 in the cellular BaF3 FGFR4 assay, outlier values) [nM]
6.1	0.2	COCCNc1cc(NC(=O)N2CCCc3cc(CN4C[C@H](N(C)C)CC4=O)c(C=O)nc32)ncc1C#N [(R)-N-(5-cyano-4-((2-methoxyethyl)amino)pyridin-2-yl)-6-((4-(dimethylamino)-2-oxopyrrolidin-1-yl)methyl)-7-formyl-3,4-dihydro-1,8-naphthyridine-1(2H)-carboxamide]			
> 3000	440	COc1cc(NC(=O)N2CCCc3cc(CN4CCCC4(C)C)c(C=O)nc32)ncc1C#N [N-(5-cyano-4-methoxypyridin-2-yl)-6-((2,2-dimethylpyrrolidin-1-yl)methyl)-7-formyl-3,4-dihydro-1,8-naphthyridine-1(2H)-carboxamide]			
854	26.4	CC(C)Oc1cc(NC(=O)N2CCCc3cc(CN4CCCC4)c(C=O)nc32)ncc1C#N [N-(5-cyano-4-isopropoxypyridin-2-yl)-7-formyl-6-(pyrrolidin-1-ylmethyl)-3,4-dihydro-1,8-naphthyridine-1(2H)-carboxamide]			
6.7	1.2	CN1CCN(Cc2cc3c(nc2C=O)N(C(=O)Nc2cc(OCC(F)F)c(C#N)cn2)CCC3)C(=O)C1 [N-(5-cyano-4-(2,2-difluoroethoxyl)pyridin-2-yl)-7-formyl-6-((4-methyl-2-oxopiperazin-1-yl)methyl)-3,4-dihydro-1,8-naphthyridine-1(2H)-carboxamide]			
223	57	N#Cc1cnc(NC(=O)N2CCCc3cc(C(F)F)c(C=O)nc32)cc1Cl [N-(4-chloro-5-cyanopyridin-2-yl)-6-(difluoromethyl)-7-formyl-3,4-dihydro-1,8-naphthyridine-1(2H)-carboxamide]			
		O=Cc1nc2c(cc1CO)CCCN2C(=O)Nc1cc(O[C@H]2CCOC2)c(Cl)cn1 [Example 72, (S)-N-(5-chloro-4-((tetrahydrofuran-3-yl)oxy)pyridin-2-yl)-7-formyl-6-(hydroxymethyl)-3,4-dihydro-1,8-naphthyridine-1(2H)-carboxamide]	57.5	21	
21	1.2	CC(C)Oc1cc(NC(=O)N2CCCc3cc(C(F)F)c(C=O)nc32)ncc1C#N [N-(5-cyano-4-isopropoxypyridin-2-yl)-6-(difluoromethyl)-7-formyl-3,4-dihydro-1,8-naphthyridine-1(2H)-carboxamide]			
8.1	0.5	CC(=O)N(C)Cc1cc2c(nc1C=O)N(C(=O)Nc1cc(NCCO)c(C#N)cn1)CCC2 [N-(5-cyano-4-((2-hydroxyethyl)amino)pyridin-2-yl)-7-formyl-6-((N-methylacetamido)methyl)-3,4-dihydro-1,8-naphthyridine-1(2H)-carboxamide]			
19	1.2	COC[C@@H](C)Nc1cc(NC(=O)N2CCCc3cc(C(F)F)c(C=O)nc32)ncc1C#N [(R)-N-(5-cyano-4-((1-methoxypropan-2-yl)amino)pyridin-2-yl)-6-(difluoromethyl)-7-formyl-3,4-dihydro-1,8-naphthyridine-1(2H)-carboxamide]			
21	2.6	CC(=O)N(C)Cc1cc2c(nc1C=O)N(C(=O)Nc1cc(NCC3CN(C)CCO3)c(C#N)cn1)CCC2 (stereo not drawn) [N-(5-cyano-4-(((4-methylmorpholin-2-yl)methyl)amino)pyridin-2-yl)-7-formyl-6-((N-methylacetamido)methyl)-3,4-dihydro-1,8-naphthyridine-1(2H)-carboxamide]			
4.8	0.6	COC[C@@H](C)Nc1cc(NC(=O)N2CCCc3cc(CN4CCCC4=O)c(C=O)nc32)ncc1C#N [(R)-N-(5-cyano-4-((1-methoxypropan-2-yl)amino)pyridin-2-yl)-7-formyl-6-((2-oxopyrrolidin-1-yl)methyl)-3,4-dihydro-1,8-naphthyridine-1(2H)-carboxamide]			
4.6	2.4	COC[C@@H](C)Nc1cc(NC(=O)N2CCCc3cc(CN4CCOCC4=O)c(C=O)nc32)ncc1C#N [(R)-N-(5-cyano-4-((1-methoxypropan-2-yl)amino)pyridin-2-yl)-7-formyl-6-((3-oxomorpholino)methyl)-3,4-dihydro-1,8-naphthyridine-1(2H)-carboxamide]			
63	0.5	COCCNc1cc(NC(=O)N2CCCc3cc(CN4CCC(N(C)C)C4)c(C=O)nc32)ncc1C#N (stereo not drawn) [N-(5-cyano-4-((2-methoxyethyl)amino)pyridin-2-yl)-6-((3-(dimethylamino)pyrrolidin-1-yl)methyl)-7-formyl-3,4-dihydro-1,8-naphthyridine-1(2H)-carboxamide]			
11.5	2.3	COCCNc1cc(NC(=O)N2CCCc3cc(CN(C)C(C)=O)c(C=O)nc32)ncc1C(F)(F)F [7-formyl-N-(4-((2-methoxyethyl)amino)-5-(trifluoromethyl)pyridin-2-yl)-6-((N-methylacetamido)methyl)-3,4-dihydro-1,8-naphthyridine-1(2H)-carboxamide]			
18.8	1.1	COC(C)CNc1cc(NC(=O)N2CCCc3cc(C(F)F)c(C=O)nc32)ncc1C#N (stereo not drawn) [N-(5-cyano-4-((2-methoxypropyl)amino)pyridin-2-yl)-6-(difluoromethyl)-7-formyl-3,4-dihydro-1,8-naphthyridine-1(2H)-carboxamide]			
4.5	1.8	COC[C@@H](C)Nc1cc(NC(=O)N2CCCc3cc(CN(C)C(C)=O)c(C=O)nc32)ncc1C#N [(R)-N-(5-cyano-4-((1-methoxypropan-2-yl)amino)pyridin-2-yl)-7-formyl-6-((N-methylacetamido)methyl)-3,4-dihydro-1,8-naphthyridine-1(2H)-carboxamide]			
6.7	0.3	CC(C)Oc1cc(NC(=O)N2CCCc3cc(CN4C[C@H](N(C)C)CC4=O)c(C=O)nc32)ncc1C#N [(R)-N-(5-cyano-4-isopropoxypyridin-2-yl)-6-((4-(dimethylamino)-2-oxopyrrolidin-1-yl)methyl)-7-formyl-3,4-dihydro-1,8-naphthyridine-1(2H)-carboxamide]			
11.5	0.6	CC(C)Nc1cc(NC(=O)N2CCCc3cc(CN(C)C(=O)CN(C)C)c(C=O)nc32)ncc1C#N [N-(5-cyano-4-(isopropylamino)pyridin-2-yl)-6-((2-(dimethylamino)-N-methylacetamido)methyl)-7-formyl-3,4-dihydro-1,8-naphthyridine-1(2H)-carboxamide]			
5.8	0.6	COCCNc1cc(NC(=O)N2CCCc3cc(CN4C[C@@H](N(C)C)CC4=O)c(C=O)nc32)ncc1C#N [(S)-N-(5-cyano-4-((2-methoxyethyl)amino)pyridin-2-yl)-6-((4-(dimethylamino)-2-oxopyrrolidin-1-yl)methyl)-7-formyl-3,4-dihydro-1,8-naphthyridine-1(2H)-carboxamide]			
7.9	3.7	N#Cc1cnc(NC(=O)N2CCCc3cc(CN4CC[C@@H](O)C4=O)c(C=O)nc32)cc1OCC(F)F [(R)-N-(5-cyano-4-(2,2-difluoroethoxyl)pyridin-2-yl)-7-formyl-6-((3-hydroxy-2-oxopyrrolidin-1-yl)methyl)-3,4-dihydro-1,8-naphthyridine-1(2H)-carboxamide]			
10.3	1.6	CC(C)(O)CNc1cc(NC(=O)N2CCCc3cc(C(F)F)c(C=O)nc32)ncc1C#N [N-(5-cyano-4-((2-hydroxy-2-methylpropyl)amino)pyridin-2-yl)-6-(difluoromethyl)-7-formyl-3,4-dihydro-1,8-naphthyridine-1(2H)-carboxamide]			
328	0.9	CC(C)Oc1cc(NC(=O)N2c3nc(C=O)ccc3CCC2C)ncc1C#N (stereo not drawn) [N-(5-cyano-4-isopropoxypyridin-2-yl)-7-formyl-2-methyl-3,4-dihydro-1,8-naphthyridine-1(2H)-carboxamide]			
55.5	3	CC(C)Oc1cc(NC(=O)N2CCCc3cc(CN4CCN(C)CC4)c(C=O)nc32)ncc1C#N [N-(5-cyano-4-isopropoxypyridin-2-yl)-7-formyl-6-((4-methylpiperazin-1-yl)methyl)-3,4-dihydro-1,8-naphthyridine-1(2H)-carboxamide]			
10.8	2.2	CO[C@@H](C)COc1cc(NC(=O)N2CCCc3cc(CN4CCN(C)CC4=O)c(C=O)nc32)ncc1C#N [(S)-N-(5-cyano-4-(2-methoxypropoxyl)pyridin-2-yl)-7-formyl-6-((4-methyl-2-oxopiperazin-1-yl)methyl)-3,4-dihydro-1,8-naphthyridine-1(2H)-carboxamide]			
		N#Cc1cnc(NC(=O)N2CCCc3cc(CO)c(C=O)nc32)cc1OCC(F)(F)F [Example 89, N-(5-cyano-4-(2,2,2-trifluoroethoxyl)pyridin-2-yl)-7-formyl-6-(hydroxymethyl)-3,4-dihydro-1,8-naphthyridine-1(2H)-carboxamide]	14.5	8.9	
		O=Cc1nc2c(cc1CO)CCCN2C(=O)Nc1cc(O[C@H]2CCOC2)ccn1 [Example 71, (S)-7-formyl-6-(hydroxymethyl)-N-(4-((tetrahydrofuran-3-yl)oxy)pyridin-2-yl)-3,4-dihydro-1,8-naphthyridine-1(2H)-carboxamide]	1570	810	
		CN1CCN(Cc2cc3c(nc2C=O)N(C(=O)Nc2cc(NCCOS(=O)(=O)O)c(C#N)cn2)CCC3)C(=O)C1 [Example 236, 2-((5-cyano-2-(7-formyl-6-((4-methyl-2-oxopiperazin-1-yl)methyl)-1,2,3,4-tetrahydro-1,8-naphthyridine-1-carboxamido)pyridin-4-yl)amino)ethyl hydrogen sulfate]	1130	8.2	> 3000
138	46.5	COc1cc(NC(=O)N2CCCc3cc(CN4CCCC4=O)c(C=O)nc32)ncc1C(F)(F)F [7-formyl-N-(4-methoxy-5-(trifluoromethyl)pyridin-2-yl)-6-((2-oxopyrrolidin-1-yl)methyl)-3,4-dihydro-1,8-naphthyridine-1(2H)-carboxamide]			
